Here are results for 17 molecules from US20240270821A1, “GIP/GLP1/GCG TRI-RECEPTOR AGONISTS AND USES THEREOF” (priority 2023, published 2024).

Read-outs that look alike come from different tables or passages of the source. Starred links: 1 amine or outer side, 2 acyl side, 3 side chain; linkers in the order of their positions; H or OH if unused. Non-standard residues stand in square brackets, D forms with d. Groups on a side chain read outwards from the residue. No end group written: not given here. *: point of attachment. C18 diacid = O=C(O)CCCCCCCCCCCCCCCCC(=O)*; αMePhe(2-F) = C[C@](N)(Cc1ccccc1F)C(=O)O; γGlu = O=C(O)[C@H](CCC(=O)[*:2])N[*:1]; αMe4Pal = C[C@](N)(Cc1ccncc1)C(=O)O; αMeY = C[C@](N)(Cc1ccc(O)cc1)C(=O)O; 4Pal = N[C@@H](Cc1ccncc1)C(=O)O; αMeL = CC(C)C[C@](C)(N)C(=O)O; αMeS = C[C@](N)(CO)C(=O)O; Orn = NCCC[C@H](N)C(=O)O; AEEA = NCCOCCOCC(=O)O; Aib = CC(C)(N)C(=O)O

What all share (assay type): cell-based
The target in test [1] is T1, hGLP-1R (Homo sapiens, UniProt P43220). The test can be described thus: Functional cAMP activity in the presence of 1% HSA. The following applies: read-out: cAMP Rel EC50, hGLP-1R.
The target in a further test is human GcgR (Homo sapiens, UniProt P47871). As to the kind of experiment: Functional cAMP activity in the presence of 1% HSA. The following applies: read-out: cAMP Rel EC50, hGcgR.
The target in test [2] is T2, hGIPR (Homo sapiens, UniProt P48546).
T2 sequence (P48546 22-466): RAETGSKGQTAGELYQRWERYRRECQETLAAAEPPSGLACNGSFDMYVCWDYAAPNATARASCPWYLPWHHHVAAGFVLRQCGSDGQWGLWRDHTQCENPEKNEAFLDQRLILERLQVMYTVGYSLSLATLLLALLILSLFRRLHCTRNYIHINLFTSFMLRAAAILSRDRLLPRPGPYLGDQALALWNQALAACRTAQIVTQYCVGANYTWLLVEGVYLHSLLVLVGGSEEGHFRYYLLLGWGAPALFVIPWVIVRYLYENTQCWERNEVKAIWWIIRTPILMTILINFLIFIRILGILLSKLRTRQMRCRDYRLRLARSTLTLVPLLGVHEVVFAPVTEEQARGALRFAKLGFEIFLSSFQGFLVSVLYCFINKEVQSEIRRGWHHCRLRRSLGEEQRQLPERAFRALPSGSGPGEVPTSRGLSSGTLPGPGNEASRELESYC
As to the kind of experiment: Functional cAMP activity in the presence of 1% HSA. The following applies: read-out: cAMP Rel EC50, hGIPR.

Test [3] concerns the target T2, hGIPR. As to the kind of experiment: Functional cAMP activation in the presence of 0.1% casein (no HSA). The settings on record: read-out: Relative cAMP EC50, hGIPR.
Test [4] deals with T1, hGLP-1R. Described as above. The settings on record: read-out: Relative cAMP EC50, hGLP-1R.
The target in another test is hGcgR (Homo sapiens, UniProt P47871). Described as above. The settings on record: read-out: Relative cAMP EC50, hGcgR.
Setting [5] is: in the presence of 0.1% casein (no HSA), geometric mean.
[6] abbreviates: HEK-293 clonal cell line, 1% HSA, geometric mean of relative EC50.
Setting [7] is: in the presence of 0.1% casein (no HSA), geometric mean of relative EC50.
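Throughout, for Relative cAMP EC50, hGIPR: intracellular cAMP rise after 30 min at 37 °C read by HTRF against a standard curve, scaled between buffer alone (0%) and top control ligand concentration (100%), four-parameter fit.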
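Throughout, for Relative cAMP EC50, hGLP-1R: intracellular cAMP rise after 30 min at 37 °C read by HTRF, normalized between buffer only (0%) and maximal control ligand (100%), four-parameter variable-slope fit.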
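Throughout, for Relative cAMP EC50, hGcgR: intracellular cAMP rise after 30 min at 37 °C, read by HTRF against a cAMP standard curve, scaled from buffer only (0%) to maximal control ligand response (100%).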

T1 sequence (P43220 24-463): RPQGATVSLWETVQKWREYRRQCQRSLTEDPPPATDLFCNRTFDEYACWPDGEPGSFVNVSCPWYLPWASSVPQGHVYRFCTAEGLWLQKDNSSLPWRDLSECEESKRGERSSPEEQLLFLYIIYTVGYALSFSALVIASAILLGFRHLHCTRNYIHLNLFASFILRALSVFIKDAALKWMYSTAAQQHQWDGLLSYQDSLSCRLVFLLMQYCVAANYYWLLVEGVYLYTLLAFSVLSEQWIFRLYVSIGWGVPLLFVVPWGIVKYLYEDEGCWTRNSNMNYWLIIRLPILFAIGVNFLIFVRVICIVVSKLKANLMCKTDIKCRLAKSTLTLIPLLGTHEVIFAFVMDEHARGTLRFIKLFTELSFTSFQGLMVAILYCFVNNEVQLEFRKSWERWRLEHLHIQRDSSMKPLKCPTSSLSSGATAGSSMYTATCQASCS
Chain of human GcgR (P47871 26-477): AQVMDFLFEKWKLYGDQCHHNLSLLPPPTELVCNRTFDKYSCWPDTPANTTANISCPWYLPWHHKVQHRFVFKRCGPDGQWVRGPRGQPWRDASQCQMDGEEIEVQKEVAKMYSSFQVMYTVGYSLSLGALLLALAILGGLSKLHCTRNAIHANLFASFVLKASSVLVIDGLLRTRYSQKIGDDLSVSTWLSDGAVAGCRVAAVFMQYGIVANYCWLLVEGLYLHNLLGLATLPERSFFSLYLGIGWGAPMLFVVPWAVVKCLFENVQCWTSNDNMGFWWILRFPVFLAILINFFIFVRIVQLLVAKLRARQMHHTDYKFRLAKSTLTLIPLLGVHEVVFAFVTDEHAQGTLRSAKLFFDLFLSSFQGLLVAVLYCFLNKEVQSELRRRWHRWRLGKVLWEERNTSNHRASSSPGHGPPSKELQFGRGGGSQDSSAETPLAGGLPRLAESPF
Chain of hGcgR (P47871 26-477): as above

In the case of “H-Y[Aib]QGTFTSDFSK[αMeL]LDKK([AEEA-γGlu-C18 diacid])AQ[Aib]AFIE[αMe4Pal]LIE[Aib]GPSSGAPPPSGS-NH2 [Example 912]”, the concentration for a half-maximal effect (EC50) (commonly the concentration that produces a half-maximal response) at hGLP-1R [1] came out at 59.6 nM; at human GcgR it was 955 nM; at hGIPR [2] it was 6.15 nM; on hGIPR [3] (setting [5]), 0.0387 nM; at hGLP-1R [4] (setting [5]), 0.414 nM; on hGcgR (setting [5]) it was 3.76 nM.
As to “H-Y[Aib]QGTFTSD[4Pal]S[Orn][αMeL]LD[Orn]K([Glu-γGlu-C18 diacid])AQ[Aib]AFIE[αMeY]LLEGGPSSGAPPPSGSEE-NH2 [Example 1066]”, the EC50 at hGLP-1R [1] came out at 1850 nM; on human GcgR, 4260 nM; at hGIPR [2], 69.9 nM; on hGIPR [3] (setting [5]), 0.446 nM; at hGLP-1R [4] (setting [5]) it was 9.8 nM; on hGcgR (setting [5]), 25.4 nM.
For “H-Y[Aib]QGT[αMePhe(2-F)]TSD[4Pal][αMeS]I[αMeL]LD[Orn]K([γGlu-γGlu-C18 diacid])AQ[Aib]NFI[dE][αMeY]LQEGGPSSGEPPPEGTGE-NH2 [Example 527]”, the EC50 at hGLP-1R [1] was determined as 26.8 nM; on human GcgR it was 580 nM; on hGIPR [2], 2.6 nM; at hGIPR [3], 0.0386 nM; at hGLP-1R [4] it was 0.446 nM; on hGcgR, 6.99 nM.
On to “H-Y[Aib]QGT[αMePhe(2-F)]TSD[4Pal]SI[αMeL]LDKK([γGlu-γGlu-C18 diacid])AQ[Aib]AFIEYLEEGGPSSGAPPPSGEGE-NH2 [Example 623]”, for which the EC50 at hGLP-1R [1] is 62.2 nM; on human GcgR, 832 nM; at hGIPR [2] it was 1.48 nM; at hGIPR [3] it was 0.0224 nM; at hGLP-1R [4] it was 0.907 nM; on hGcgR, 7.94 nM.
As to “H-Y[Aib]QGT[αMePhe(2-F)]TSD[4Pal]SI[αMeL]LDKK([γGlu-γGlu-C18 diacid])AQ[Aib]AFIEYLEEGGPSSGEPPPSGTGE-NH2 [Example 624]”, the concentration giving a half-maximal response (EC50) at hGLP-1R [1] was determined as 63.4 nM; on human GcgR, 808 nM; on hGIPR [2], 1.17 nM; at hGIPR [3], 0.0222 nM; on hGLP-1R [4], 0.95 nM; on hGcgR, 8.42 nM.
As for “H-Y[Aib]QGTFTSD[4Pal]SK[αMeL]LDKK([AEEA-γGlu-C18 diacid])AQ[Aib]AFIEYLIE[Aib]GPSSGAPPPSGSEEE-NH2 [Example 903]”, the EC50 on hGLP-1R [1] amounted to 387 nM; at human GcgR, 1630 nM; on hGIPR [2], 31.2 nM; at hGIPR [3] (setting [5]) it was 0.277 nM; at hGLP-1R [4] (setting [5]) it was 2.7 nM; at hGcgR (setting [5]) it was 12.9 nM.
On to “Y[Aib]QGT[αMePhe(2-F)]TSD[4Pal][αMeS]I[αMeL]LD[Orn]K([AEEA-γGlu-C18 diacid])AQ[αMe4Pal]EFI[dE][αMeY]LVEGGPSSGAPPPSGGGE-NH2 [Example 769]”, for which the EC50 on hGLP-1R [1] is 34 nM; at human GcgR it was 269 nM; on hGIPR [2], 1.02 nM; at hGIPR [3] it was 0.00852 nM; at hGLP-1R [4], 0.247 nM; on hGcgR, 1.33 nM.
With “H-Y[Aib]QGTFTSD[4Pal]S[Orn][αMeL]LD[Orn]K([γGlu-γGlu-C18 diacid])AQ[αMe4Pal]AFIE[αMeY]LIEGGPSSGAPPPSGS-NH2 [Example 1013]”, the EC50 at hGLP-1R [1] was 137 nM; on human GcgR, 285 nM; at hGIPR [2] it was 22.6 nM; at hGIPR [3] (setting [5]) it was 0.208 nM; on hGLP-1R [4] (setting [5]), 0.449 nM; at hGcgR (setting [5]), 2 nM.
As to “Y[Aib]QGTFTSD[4Pal]SR[αMeL]LDKK([AEEA-γGlu-C18 diacid])AQ[αMe4Pal]AFIE[αMe4Pal]LIEGGPSSGAPPPSGS-NH2 [Example 950]”, the EC50 came to 328 nM at hGLP-1R [1]; 327 nM on human GcgR; 18.1 nM at hGIPR [2]; 0.18 nM on hGIPR [3] (setting [5]); 2.5 nM on hGLP-1R [4] (setting [5]); 1.92 nM at hGcgR (setting [5]).
Regarding “H-Y[Aib]QGT[αMePhe(2-F)]TSD[4Pal]SI[αMeL]LDKK([γGlu-γGlu-C18 diacid])AQ[Aib][Orn]FIEYLEEGGPSSGEPPPSGSEE-NH2 [Example 635]”, the 50% effective concentration (EC50) came out at 53.9 nM at hGLP-1R [1] (setting [6]); 753 nM at human GcgR (setting [6]); 2.7 nM on hGIPR [2] (setting [6]); 0.0405 nM on hGIPR [3] (setting [7]); 0.625 nM on hGLP-1R [4] (setting [7]); 7.09 nM on hGcgR (setting [7]).
As for “H-Y[Aib]QGT[αMePhe(2-F)]TSD[4Pal][αMeS]I[αMeL]LD[Orn]K([AEEA-γGlu-C18 diacid])AQ[αMe4Pal]EFI[dE][αMeY]LIEGGPPS[Aib][Orn]PPP[Orn]GS-NH2 [Example 1189]”, the EC50 turned out to be 45.4 nM at hGLP-1R [1]; 248 nM at human GcgR; 0.584 nM at hGIPR [2]; 0.00597 nM on hGIPR [3] (setting [5]); 0.292 nM at hGLP-1R [4] (setting [5]); 1.59 nM at hGcgR (setting [5]).
Regarding “H-Y[Aib]QGT[αMePhe(2-F)]TSD[4Pal][αMeS]I[αMeL]LD[Orn]K([γGlu-γGlu-C18 diacid])AQ[Aib][Orn]FI[dE][αMeY]LSEGGPSSGEPPPSGGEE-NH2 [Example 568]”, the concentration for a half-maximal effect (EC50) on hGLP-1R [1] was 116 nM; on human GcgR, 477 nM; at hGIPR [2], 13.2 nM; at hGIPR [3] it was 0.125 nM; on hGLP-1R [4], 0.986 nM; at hGcgR it was 6.13 nM.
As to “Y[Aib]QGT[αMePhe(2-F)]TSD[4Pal][αMeS]I[αMeL]LD[Orn]K([Glu-γGlu-C18 diacid])AQ[Aib][Orn]FI[dE][αMeY]LSEGGPSSGEPPPSGTEE-NH2 [Example 564]”, the EC50 is 101 nM on hGLP-1R [1]; 667 nM at human GcgR; 10.8 nM at hGIPR [2]; 0.176 nM at hGIPR [3]; 1.33 nM at hGLP-1R [4]; 10.2 nM at hGcgR.
As for “H-Y[Aib]QGTFTSD[4Pal]SQ[αMeL]LDKK([γGlu-γGlu-C18 diacid])AQ[αMe4Pal]AFIEYLLAGGPSSGAPPPSGSEE-NH2 [Example 1036]”, the EC50 at hGLP-1R [1] was determined as 1080 nM; on human GcgR, 353 nM; on hGIPR [2], 13 nM; at hGIPR [3] (setting [5]), 0.114 nM; at hGLP-1R [4] (setting [5]), 6.87 nM; at hGcgR (setting [5]), 2.05 nM.
`CC[C@H](C)[C@H](NC(=O)[C@H](CO)NC(=O)[C@H](Cc1ccc(O)cc1)NC(=O)[C@H](CC(=O)O)NC(=O)[C@H](CO)NC(=O)[C@@H](NC(=O)[C@](C)(Cc1ccccc1F)NC(=O)[C@@H](NC(=O)CNC(=O)[C@H](CCC(N)=O)NC(=O)C(C)(C)NC(=O)[C@@H](N)Cc1ccc(O)cc1)[C@@H](C)O)[C@@H](C)O)C(=O)N[C@@H](CC(C)C)C(=O)N[C@@H](CC(C)C)C(=O)N[C@@H](CC(=O)O)C(=O)N[C@@H](CCCN)C(=O)N[C@@H](CCCCNC(=O)COCCOCCNC(=O)COCCOCCNC(=O)CC[C@H](NC(=O)CCCCCCCCCCCCCCCCC(=O)O)C(=O)O)C(=O)N[C@@H](C)C(=O)N[C@@H](CCC(N)=O)C(=O)NC(C)(C)C(=O)N[C@@H](C)C(=O)N[C@@H](Cc1ccccc1)C(=O)N[C@H](C(=O)N[C@H](CCC(=O)O)C(=O)N[C@@H](Cc1ccc(O)cc1)C(=O)N[C@@H](CC(C)C)C(=O)N[C@@H](CC(C)C)C(=O)N[C@@H](CCC(=O)O)C(=O)NCC(=O)NCC(=O)N1CCC[C@H]1C(=O)N[C@@H](CO)C(=O)N[C@@H](CO)C(=O)NCC(=O)N[C@@H](C)C(=O)N1CCC[C@H]1C(=O)N1CCC[C@H]1C(=O)N1CCC[C@H]1C(=O)N[C@@H](CO)C(N)=O)[C@@H](C)CC` [Example 427]: the EC50 turned out to be 42.9 nM at hGLP-1R [1]; 1440 nM on human GcgR; 4.25 nM at hGIPR [2]; 0.0121 nM on hGIPR [3]; 0.282 nM on hGLP-1R [4]; 3.81 nM on hGcgR.
On to “H-Y[Aib]QGT[αMePhe(2-F)]TSD[4Pal][αMeS]I[αMeL]LD[Orn]K([AEEA-γGlu-C18 diacid])AA[Aib]EFI[dE][αMeY]LIEGGPSSGAPPPSGTGQ-OH [Example 724]”, for which the 50% effective concentration (EC50) at hGLP-1R [1] worked out at 26.4 nM; on human GcgR it was 209 nM; at hGIPR [2], 1.06 nM; on hGIPR [3] it was 0.0102 nM; on hGLP-1R [4], 0.256 nM; at hGcgR it was 1.74 nM.
As for “H-Y[Aib]QGT[αMePhe(2-F)]TSD[4Pal]SI[αMeL]LD[Orn]K([γGlu-γGlu-C18 diacid])AQ[αMe4Pal][Orn]FI[dE][αMeY]LIEGGPSSGEPPPSGE-NH2 [Example 682]”, the EC50 was determined as 14 nM on hGLP-1R [1]; 127 nM on human GcgR; 0.415 nM at hGIPR [2]; 0.00661 nM on hGIPR [3]; 0.212 nM at hGLP-1R [4]; 1.91 nM at hGcgR.
